Assay results reported in patent US9321768B2, “Indoles as respiratory syncytial virus antiviral agents” (JANSSEN SCIENCES IRELAND UC, priority 2010, dated 2016).
Read-outs that look alike come from different tables or passages of the source.

What was measured:
[1] = tested on: rgRSV224 virus; assay: microbe, parasite or virus in culture; format: cell-based, respiratory syncytial virus (RSV); conditions: for EC50: read-out: WT activity EC50; for SI CC50/EC50: ratio of HeLa CC50 to rgRSV224 EC50
Method: (§1) Black 96-well clear-bottom microtiter plates (Corning, Amsterdam, The Netherlands) were filled in duplicate using a customized robot system with serial 4-fold dilutions of compound in a final volume of 50 μl culture medium [RPMI medium without phenol red, 10% FBS, 0.04% gentamycin (50 mg/ml) and 0.5% DMSO]. Then, 100 μl of a HeLa cell suspension (5×10^4 cells/ml) in culture medium was added to each well followed by the addition of 50 μl rgRSV224 (MOI=0.02) virus in culture medium using a multidrop dispenser (Thermo Scientific, Erembodegem, Belgium). rgRSV224 virus is an engineered virus that includes an additional GFP gene (Hallak et al, 2000) and was in-licensed from the NIH (Bethesda, Md., USA). Medium, virus- and mockinfected controls were included in each test. Cells were incubated at 37° C. in a 5% CO2 atmosphere. Three days post-virus exposure, viral replication was quantified by measuring GFP expression in the cells by a MSM laser microscope (Tibotec, Beerse, Belgium). The EC50 was defined as the 50% inhibitory concentration for GFP expression. In parallel, compounds were incubated for three days in a set of white 96-well microtitier plates (Corning) and the cytotoxicity of compounds in HeLa cells was determined by measuring the ATP content of the cells using the ATPlite kit (PerkinElmer, Zaventem, Belgium) according to the manufacturer's instructions. The CC50 was defined as the 50% concentration for cytotoxicity.

[2] = Cytotoxicity in HeLa cells, ATP content (ATPlite kit); format: cell-based; conditions: human
Method: as §1

[3] = human respiratory syncytial virus, HeLa, 72 h
[4] = rgRSV224 (MOI=0.02) in HeLa cells, GFP expression three days post-virus exposure

SMILES	EC50 [1, 3] [nM]	CC50 at 3 days [2] [nM]	CC50 at 3 days ([2]; HeLa cells, three days incubation, ATP content, read-out: Toxicity CC50) [nM]	SI CC50/EC50 [1]	EC50 [1, 4] [nM]
CS(=O)(=O)CCCn1c(Cn2c(=O)n(C3CC3)c3ccncc32)cc2cc(Cl)ccc21 [Compound 1, 3-((5-Chloro-1-(3-(methylsulfonyl)propyl)-1H-indol-2-yl)methyl)-1-cyclopropyl-1H-imidazo[4,5-c]pyridin-2(3H)-one]	0.286	> 9840	–	–	–
CS(=O)(=O)CCCn1c(Cn2c(=O)n(C3CC3)c3ccncc32)cc2cc(Br)ccc21 [Compound 2, 3-((5-bromo-1-(3-(methylsulfonyl)propyl)-1H-indol-2-yl)methyl)-1-cyclopropyl-1H-imidazo[4,5-c]pyridine-2(3H)-one]	0.288	> 9840	–	–	–
N#CCCCCn1c(Cn2c(=O)n(C3CC3)c3ccncc32)cc2cc(Br)ccc21 [Compound 3, 5-((5-bromo-2-(1-cyclopropyl-2-oxo-1H-imidazo[4,5-c]pyridin-3(2H)-yl)methyl)-1H-indol-1-yl)pentanenitrile]	0.452	> 9840	–	–	–
O=c1n(Cc2cc3cc(Br)ccc3n2CCCCO)c2cnccc2n1C1CC1 [Compound 4, 3-((5-bromo-1-(4-hydroxybutyl)-1H-indol-2-yl)methyl)-1-cyclopropyl-1H-imidazo[4,5-c]pyridin-2(3H)-one]	1.12	–	48700	–	–
CS(=O)(=O)CCCn1c(Cn2c(=O)n(C3COC3)c3ccncc32)cc2cc(Br)ccc21 [Compound 5, 3-((5-Bromo-1-(3-(methylsulfonyl)propyl)-1H-indol-2-yl)methyl)-1-(oxetan-3-yl)-1H-imidazo[4,5-c]pyridin-2(3H)-one]	1.56	> 9840	–	–	–
CS(=O)(=O)CCCn1c(Cn2c(=O)n(C3CC3)c3ccc(F)cc32)cc2cc(Br)ccc21 [Compound 6, 3-((5-Bromo-1-(3-(methylsulfonyl)propyl)-1H-indol-2-yl)methyl)-1-cyclopropyl-5-fluoro-1H-benzo[d]imidazol-2(3H)-one]	1.6	> 9840	–	–	–
O=c1n(Cc2cc3cc(Cl)ccc3n2CCCCO)c2cnccc2n1C1CC1 [Compound 7, 3-((5-Chloro-1-(4-hydroxybutyl)-1H-indol-2-yl)methyl)-1-cyclopropyl-1H-imidazo[4,5-c]pyridin-2(3H)-one]	2.24	47600	–	–	–
CS(=O)(=O)CCCn1c(Cn2c(=O)n(C3CC3)c3ccc(F)cc32)cc2cc(Cl)ccc21 [Compound 8, 3-((5-Chloro-1-(3-(methylsulfonyl)propyl)-1H-indol-2-yl)methyl)-1-cyclopropyl-5-fluoro-1H-benzo[d]imidazol-2(3H)-one]	3.79	> 9840	–	–	–
O=c1n(Cc2cc3cc(F)ccc3n2CCCCO)c2cnccc2n1C1CC1 [Compound 9, 1-Cyclopropyl-3-((5-fluoro-1-(4-hydroxybutyl)-1H-indol-2-yl)methyl)-1H-imidazo[4,5-c]pyridin-2(3H)-one]	29.4	50300	–	–	–
COc1ccc2c(c1)cc(Cn1c(=O)n(C3CC3)c3ccncc31)n2CCCCO [Compound 10, 1-Cyclopropyl-3-((1-(4-hydroxybutyl)-5-methoxy-1H-indol-2-yl)methyl)-1H-imidazo[4,5-c]pyridin-2(3H)-one]	38.3	> 9840	–	–	–
CC(C)CCn1c(Cn2c(=O)n(C3CC3)c3ccncc32)cc2ccccc21 [Compound 12, 1-cyclopropyl-3-((1-isopentyl-1H-indol-2-yl)methyl)-1H-imidazo[4,5-c]pyridin-2(3H)-one]	361	65500	–	–	–
CS(=O)(=O)CCCn1c(Cn2c(=O)n(C3CC3)c3ccncc32)cc2cc(F)ccc21 [Compound P20]	–	–	–	15206	4.07
CS(=O)(=O)CCCn1c(Cn2c(=O)n(C3CC3)c3ccccc32)cc2cc(Br)ccc21 [Compound P21]	–	–	–	6322	3.88
CS(=O)(=O)CCCn1c(Cn2c(=O)n(C3COC3)c3ccncc32)cc2cc(F)ccc21 [Compound P22]	–	–	–	>4200	23.8
CS(=O)(=O)CCCn1c(Cn2c(=O)n(C3CC3)c3ccncc32)cc2cc(C(F)(F)F)ccc21 [Compound P23]	–	–	–	6557	7.37
CS(=O)(=O)CCCn1c(Cn2c(=O)n(C3COC3)c3ccncc32)cc2ccccc21 [Compound P24]	–	–	–	>3065	32.6
CS(=O)(=O)CCCn1c(Cn2c(=O)n(C3CC3)c3ccncc32)cc2ccccc21 [Compound P25]	–	–	–	>10945	9.14
CS(=O)(=O)CCCn1c(Cn2c(=O)n(C3CC3)c3ccccc32)cc2cc(F)ccc21 [Compound P26]	–	–	–	2270	22.6
CS(=O)(=O)CCCn1c(Cn2c(=O)n(C3CC3)c3ccc(F)cc32)cc2cc(F)ccc21 [Compound P27]	–	–	–	664	36
CS(=O)(=O)CCCn1c(Cn2c(=O)n(C3CC3)c3ccccc32)cc2ccccc21 [Compound P28]	–	–	–	184	348
O=c1n(Cc2cc3cc(F)ccc3n2CCCCF)c2cnccc2n1C1CC1 [Compound P29]	–	–	–	2149	13.8
O=c1n(Cc2cc3cc(Cl)ccc3n2CCCCF)c2cnccc2n1C1CC1 [Compound P30]	–	–	–	24457	0.733

SMILES	EC50 [1, 3] [nM]	CC50 at 3 days [2] [nM]	CC50 at 3 days ([2]; HeLa cells, three days incubation, ATP content, read-out: Toxicity CC50) [nM]	SI CC50/EC50 [1]	EC50 [1, 4] [nM]
O=c1n(Cc2cc3cc(Br)ccc3n2CCCC(F)(F)F)c2ccccc2n1C1CC1 [Compound P31]	–	–	–	3446	12.1
O=c1n(Cc2cc3cc(Br)ccc3n2CCCC(F)(F)F)c2cnccc2n1C1CC1 [Compound P32]	–	–	–	53514	0.34
N#CCCCn1c(Cn2c(=O)n(C3CC3)c3ccncc32)cc2cc(Cl)ccc21 [Compound P33]	–	–	–	190625	0.266
O=c1n(Cc2cc3cc(F)ccc3n2CCCCF)c2ccccc2n1C1CC1 [Compound P34]	–	–	–	>398	251
N#CCCCn1c(Cn2c(=O)n(C3CC3)c3ccccc32)cc2cc(Cl)ccc21 [Compound P35]	–	–	–	5353	3.14
CS(=O)(=O)CCCn1c(Cn2c(=O)n(C3CC3)c3ccccc32)cc2cc(Cl)ccc21 [Compound P40]	–	–	–	>29923	2.94
COc1ccc2c(c1)n(Cc1cc3cc(F)ccc3n1CCCS(C)(=O)=O)c(=O)n2C1CC1 [Compound P41]	–	–	–	886	63.4
CS(=O)(=O)CCCn1c(Cn2c(=O)n(CC(F)(F)F)c3ccc(F)cc32)cc2cc(Cl)ccc21 [Compound P50]	–	–	–	5176	4.8
NC(=O)c1c(Cn2c(=O)n(C3CC3)c3ccncc32)n(CCCCF)c2ccc(Cl)cc12 [Compound P54, 5-chloro-2-((1-cyclopropyl-2-oxo-1H-imidazo[4,5-c]pyridin-3(2H)-yl)methyl)-1-(4-fluorobutyl)-1H-indole-3-carboxamide]	0.0528	–	–	>603587	–
CS(=O)(=O)CCCn1c(Cn2c(=O)n(CC(F)(F)F)c3ccncc32)cc2cc(Cl)ccc21 [Compound P55]	–	–	–	>258982	< 0.157
O=c1n(Cc2cc3cc(Cl)ccc3n2CCCN2CCOCC2)c2cnccc2n1C1CC1 [Compound P58]	–	–	–	7416	5.8
N#CCCCn1c(Cn2c(=O)n(CC(F)(F)F)c3ccncc32)cc2cc(Cl)ccc21 [Compound P62]	–	–	–	81459	0.539
NC(=O)c1c(Cn2c(=O)n(C3CC3)c3ccc(F)cc32)n(CCCCF)c2ccc(Cl)cc12 [Compound P63]	–	–	–	>89869	1.11
CNC(=O)c1c(Cn2c(=O)n(C3CC3)c3ccncc32)n(CCCC(F)(F)F)c2ccc(Cl)cc12 [Compound P64]	–	–	–	>3896	6.42
NC(=O)c1c(Cn2c(=O)n(C3CC3)c3ccc(F)cc32)n(CCCC(F)(F)F)c2ccc(Cl)cc12 [Compound P65]	–	–	–	>45348	1.1
O=c1n(Cc2cc3cc(Cl)ccc3n2CCCCF)c2cnccc2n1C1COC1 [Compound P66]	–	–	–	21581	1.25
O=c1n(Cc2cc3cc(Cl)ccc3n2CCCC(F)(F)F)c2cnccc2n1C1COC1 [Compound P67]	–	–	–	>85461	1.25
O=C(NC1CC1)c1c(Cn2c(=O)n(C3CC3)c3ccncc32)n(CCCC(F)(F)F)c2ccc(Cl)cc12 [Compound P68]	–	–	–	249	12.6
CC(C)(O)CCCn1c(Cn2c(=O)n(C3CC3)c3ccncc32)cc2cc(Cl)ccc21 [Compound P72]	–	–	–	24273	1.58
CC(C)(O)CCCn1c(Cn2c(=O)n(C3COC3)c3ccncc32)cc2cc(Cl)ccc21 [Compound P73]	–	–	–	15070	3.16
CC(C)(O)CCCn1c(Cn2c(=O)n(CC(F)(F)F)c3ccncc32)cc2cc(Cl)ccc21 [Compound P74]	–	–	–	15708	3.16
